We go through three compounds from publication PMC4125495 (DNA repair, 2014).

One data set concerns the target PARP1 (Gallus gallus, UniProt P26446). The experiment in a line: PAR ELISA assay. It counts as cell-based.
In data set [1] the test system is BRCA2tr/- cells. The experiment in a line: Cell viability assay. The following applies: single agent, compared with PARP1-/- and hTDP1 cells. It counts as cell-based, chicken.
For the next data set, the system named is DT40 hTDP1 cells. Particulars: no CPT vs CPT (Table 1).
Another data set deals with hTDP1 cells. The experiment in a line: Secondary screening cell viability assay. Particulars: 15 and 20 nM CPT.
A further data set concerns TDP1-/- cells. Put plainly: Secondary screening cell viability assay. The following applies: 5 and 10 nM CPT.
The subject of data set [2] is BRCA2tr/- cells. The following applies: cited from earlier work.
Setting [3] is: read-out: IC50 Poly (ADP-ribose) lation, PAR ELISA.

Where two headings read alike, the source gives them in different places.

By IC50 is commonly meant the midpoint of a concentration-inhibition curve.

PARP1, sequence (P26446 whole entry): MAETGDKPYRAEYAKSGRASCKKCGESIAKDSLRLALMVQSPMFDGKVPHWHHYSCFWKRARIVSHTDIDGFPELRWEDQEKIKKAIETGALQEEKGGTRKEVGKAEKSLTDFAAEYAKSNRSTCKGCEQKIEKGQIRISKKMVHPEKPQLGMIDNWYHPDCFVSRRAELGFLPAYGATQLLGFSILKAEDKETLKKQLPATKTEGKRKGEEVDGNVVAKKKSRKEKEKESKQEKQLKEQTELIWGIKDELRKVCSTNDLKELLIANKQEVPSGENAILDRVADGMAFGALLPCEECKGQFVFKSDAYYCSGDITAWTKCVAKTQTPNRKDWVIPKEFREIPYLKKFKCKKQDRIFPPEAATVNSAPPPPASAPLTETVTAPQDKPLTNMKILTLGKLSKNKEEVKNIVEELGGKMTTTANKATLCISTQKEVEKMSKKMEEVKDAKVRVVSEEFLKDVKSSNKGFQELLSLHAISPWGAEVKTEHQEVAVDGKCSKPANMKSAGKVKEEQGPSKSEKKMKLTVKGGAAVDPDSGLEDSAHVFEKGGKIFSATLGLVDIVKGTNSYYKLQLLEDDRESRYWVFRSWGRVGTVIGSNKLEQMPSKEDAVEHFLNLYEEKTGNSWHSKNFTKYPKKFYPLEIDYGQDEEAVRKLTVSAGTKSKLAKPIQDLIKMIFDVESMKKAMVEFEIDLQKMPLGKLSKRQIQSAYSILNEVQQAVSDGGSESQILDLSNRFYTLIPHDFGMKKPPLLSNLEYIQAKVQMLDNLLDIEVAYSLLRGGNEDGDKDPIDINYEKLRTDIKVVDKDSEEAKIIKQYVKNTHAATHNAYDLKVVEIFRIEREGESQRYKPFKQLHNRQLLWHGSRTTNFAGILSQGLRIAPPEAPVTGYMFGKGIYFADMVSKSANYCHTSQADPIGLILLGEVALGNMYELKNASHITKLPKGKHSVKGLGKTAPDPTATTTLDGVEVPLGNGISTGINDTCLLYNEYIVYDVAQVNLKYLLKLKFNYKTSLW

Take `CC(=O)Nc1ccc2c(c1)[nH]c(=O)c1ccccc12` [Cpd1]: the IC50 at PARP1 (setting [3]) was below 20 nM. Also, the “cytotoxic effect in BRCA2tr/- cells” value in the data set on BRCA2tr/- cells [1] is “selectively cytotoxic”. In addition, the “fold potentiation of cytotoxicity in the presence of CPT” value in the data set on DT40 hTDP1 cells turned out to be 166 fold. Moreover, the “potentiating (synergistic) effect with CPT in hTDP1 cells” value with hTDP1 cells is reported as “greatest potentiating effect”. Further, in the data set with TDP1-/- cells, the “potentiating (synergistic) effect with CPT in TDP1-/- cells” value is on record as “without showing any apparent potentiating effect”.

As for `O=C(Nc1cccc2c(=O)[nH][nH]c(=O)c12)c1ccc([N+](=O)[O-])cc1` [Cpd5], on PARP1 (setting [3]), the IC50 came to 4600 nM.

With `C[C@]1(c2nc3c(C(N)=O)cccc3[nH]2)CCCN1` [Veliparib, reference compound], at PARP1, the IC50 is below 20 nM. Besides, the “fold potentiation of cytotoxicity in the presence of CPT” value in the data set on DT40 hTDP1 cells was found to be 466 fold. The “cytotoxic effect in BRCA2tr/- cells” value in the data set on BRCA2tr/- cells [2] is on record as “selectively cytotoxic”. For the same compound, the “potentiating (synergistic) effect with CPT in TDP1-/- cells” value in the data set on TDP1-/- cells is listed as “lack of synergistic effect”.
